Assay results reported in patent publication US20240285599A1, “Mature-Hepatocyte Transdifferentiation Suppressing Composition” (OSAKA UNIVERSITY, priority 2021, published 2024).

How the values were obtained:
Format in all cases: cell-based
[1] = system: TRAF3/PTEN knockdown primary human hepatocyte (PHH); assay: KRT19 mRNA quantification and immunoblotting (P52) in TRAF3/PTEN knockdown primary human hepatocyte; settings: PHH (PTKD #1); for increase in expression of P52 by knockdown of TRAF3 and PTEN: western blot
Description: Human hepatocyte chimeric mice were generated in accordance with the protocol of the previous report (Hasegawa M, et al. Biochem Biophys Res Commun. 2011; 405(3): 405-410). Ganciclovir was administered to each of highly immunocompromised NOG mice (TK-NOG) each having a liver in which a herpes simplex virus type 1 thymidine kinase transgene had been expressed to induce liver injury, followed by the transplantation of human hepatocytes. As described in the previous report (Murai K, et al. Sci Rep. 2020; 10(1): 941), primary human hepatocytes were collected from the human hepatocyte chimeric mice each having a chimeric liver rate of 90% or more by using a two-step collagenase-pronase reflux method. It was recognized by FACS that the human hepatocytes accounted for 90% or more of the collected cells. Those cells were spread on a collagen-coated dish and cultured.
(§1) The transfection of siRNA or a plasmid into cells was performed with Lipofectamine RNAiMAX Transfection Reagent (Thermo Fisher Scientific, Inc., USA) or Lipofectamine 2000 (Thermo Fisher Scientific, Inc., USA), respectively, and with Opti-MEM (Thermo Fisher Scientific, Inc., USA). The transfection of the siRNA was performed as follows: the cells were dispersed at a concentration of 100,000 cells/mL; 10 μM of the siRNA was mixed into 100 μL of the Opti-MEM at a ratio of 1 μL, and the mixture was left at rest for 5 minutes; and then 3 μL of the RNAiMAX was mixed into the mixture, and the whole was left at rest for 15 minutes, followed by administration to the supernatant of the previously dispersed cells. Further, a medium change was performed 24 hours thereafter.
A procedure for western blotting is as described in the previous report (Tanaka S, et al. Hepatology. 2016; 64(6): 1994-2014). The protein extracts of cells and animal tissues were prepared by using a lysis buffer having added thereto a protease inhibitor (Nacalai Tesque, Inc., Japan) and a phosphatase inhibitor (Nacalai Tesque, Inc., Japan). In western blotting for the detection of NIK, MG-132 (ChemScene, USA) was administered at a concentration of 5 μM 4 hours before protein recovery. The following antibodies were used in immunodetection: TRAF3 (1:1,000 Cell Signaling, #4729), PTEN (1:1,000 Cell Signaling, #9188), KRT19 (1:50,000 Abcam, #ab52625), p100/p52 (1:1,000 Cell Signaling, #4882), NIK (1:1,000 Cell Signaling, #4994), and β-actin (1:10,000 Sigma-Aldrich Co., LLC, #A5316). Anti-mouse IgG, HRP-linked whole Ab sheep (Cytiva, Japan), or anti-rabbit IgG, HRP-linked whole Ab donkey (Cytiva, Japan) was used as a secondary antibody, and luminescence analysis was performed with SuperSignal (trademark) West Pico PLUS Chemiluminescent Substrate (Thermo Fisher Scientific, Inc., USA).
Total RNA was extracted from a cell line and a human liver tissue with RNeasy Mini Kit (QIAGEN N.V., Nederland). Then, 1 μg of the total RNA was reverse-transcribed with ReverTra Ace qPCR RT Kit (Toyobo Co., Ltd., Tokyo) to synthesize complementary DNA. The mRNA expression of each of the following genes was analyzed through use of a TaqMan gene expression assay: human GAPDH (Hs02758991), human TRAF3 (Hs00936781), human PTEN (Hs02621230), human KRT19 (Hs00761767), human NIK (Hs01089753), mouse Gapdh (Mm09999915), mouse Traf3 (Mm00495752), mouse Pten (Mm00477208), mouse Krt19 (Mm00492980), mouse NIK (Mm00444166), and mouse Alb (Mm00802090). The gene expression amount of a human and the gene expression amount of a mouse were normalized to the expression amount of GAPDH.
The effect of TRAF3/PTEN inhibition on the expression of a bile duct marker in each of a primary human hepatocyte (hereinafter also referred to as “PHH”) and a human hepatoma cell line HepG2 cell (hereinafter also referred to as “HepG2”) was evaluated. The PHH and the HepG2 are each a mature hepatocyte having an albumin-producing ability. The TRAF3 and PTEN of each of the HepG2 and the PHH were knocked down with siRNA. […]

[2] = system: human cholangiocarcinoma cell line HuCCA1; assay: Cell proliferation assay (IncuCyte) of cholangiocarcinoma cell line HuCCA1
Description: (§2) A human hepatoma cell line HepG2, and human cholangiocarcinoma cell lines HuCCT1, HuCCA1, and KKU213 were obtained from the JCRB Cell Bank. The HepG2 and KKU213 cells were cultured in a Dulbecco's modified Eagle's medium (DMEM; Nacalai Tesque, Inc., Japan) having added thereto 10% heat-inactivated fetal calf serum (FCS; Gibco, USA). The HuCCT1 cells were cultured in an RPMI medium (Nacalai Tesque, Inc., Japan) containing 10% FCS. The HuCCA1 cells were cultured in D-MEM/Ham's F-12 (containing L-glutamine and phenol red) (Wako Pure Chemical Industries, Ltd., Japan) having added thereto 10% FCS. All the cells were cultured with a CO2 incubator at 37° C. The cells were detached with trypsin (Nacalai Tesque, Inc., Japan), and were passaged. Those cells were routinely examined for mycoplasma.
as §1
(§3) Hepatocytes or cholangiocarcinoma cells were inoculated on a 96-well plate, and their cell proliferation was analyzed with IncuCyte (trademark) Si (Sartorius AG, Germany) in accordance with the manufacturer's instructions.
(§4) Two kinds of NIK siRNA (the NIK KD #1 and the NIK KD #2) were introduced into each of human cholangiocarcinoma cell lines HuCCT1, HuCCA1, and KKU213 to knock down MAP3K14 (NIK). […]

[3] = system: human cholangiocarcinoma cell line HuCCT1; assay: Cell proliferation assay (IncuCyte) of cholangiocarcinoma cell line HuCCT1
Description: as §2, §1, §3, §4

[4] = system: human cholangiocarcinoma cell line KKU213; assay: Cell proliferation assay (IncuCyte) of cholangiocarcinoma cell line KKU213
Description: as §2, §1, §3, §4

[5] = NIK siRNA transfected, 72 h, FIG. 13
[6] = NIK siRNA transfected, cells recovered after 72 h culture, FIG. 13

COc1cc(C(N)=O)nc(-c2cccc(C#C[C@]3(O)CCN(C)C3=O)c2)c1 [NIKSMI, (R)-6-(3-((3-hydroxy-1-methyl-2-oxopyrrolidin-3-yl)ethynyl)phenyl)-4-methoxypicolinamide]
significantly suppressed: increase in expression of KRT19 by knockdown of TRAF3 and PTEN ([1]; NIKSMI 9 μM added 24 h after start of culture, cells recovered 48 h later, FIG. 11) | increase in expression of P52 by knockdown of TRAF3 and PTEN ([1]; NIKSMI 9 μM, 48 h, FIG. 11) | proliferation of cholangiocarcinoma cells ([2]; 9 μM or 15 μM added at beginning of culture, FIG. 21B) | proliferation of cholangiocarcinoma cells ([3]; 9 μM or 15 μM added at beginning of culture, FIG. 21A) | proliferation of cholangiocarcinoma cells ([4]; 9 μM or 15 μM added at beginning of culture, FIG. 21C)

NIK KD #1: siRNA of NIK, SEQ ID NO: 2 (sense) and 3 (antisense), from Thermo Fisher Scientific (sense CAAACGCAAAGAGCAAGAAUU; antisense UUCUUGCUCUUUGCGUUUGCA; listed as RNA, chemistry not given here)
significantly suppressed: increase in expression of P52 by knockdown of TRAF3 and PTEN [1, 5] | increase in expression of KRT19 by knockdown of TRAF3 and PTEN [1, 6] | proliferation of cholangiocarcinoma cells ([2]; NIK siRNA introduced, FIG. 19) | proliferation of cholangiocarcinoma cells ([3]; NIK siRNA introduced, FIG. 18) | proliferation of cholangiocarcinoma cells ([4]; NIK siRNA introduced, FIG. 20)

NIK KD #2: siRNA of NIK, SEQ ID NO: 4 (sense) and 5 (antisense), from Thermo Fisher Scientific (sense GCAAAGAGCAAGAACCAAAUU; antisense UUUGGUUCUUGCUCUUUGCGU; listed as RNA, chemistry not given here)
significantly suppressed: increase in expression of P52 by knockdown of TRAF3 and PTEN [1, 5] | increase in expression of KRT19 by knockdown of TRAF3 and PTEN [1, 6] | proliferation of cholangiocarcinoma cells ([2]; NIK siRNA introduced, FIG. 19) | proliferation of cholangiocarcinoma cells ([3]; NIK siRNA introduced, FIG. 18) | proliferation of cholangiocarcinoma cells ([4]; NIK siRNA introduced, FIG. 20)
